{"source": "patent US10765625B2", "about": "“Knottin-drug conjugates and methods of using the same” (THE BOARD OF TRUSTEES OF THE LELAND STANFORD JUNIOR …, priority 2016, dated 2020)", "key": {"U87MG cells [1]": {"test_system": "U87MG cells", "test": "Premature drug release study: cell proliferation (CCK-8) with hENT1 inhibitor 6 co-administered", "format": "cell-based", "conditions": "for Fold Increase in ED50 in U87MG Cells: ED50 with 6 / ED50 without 6, minus 1", "procedure": "(§1) U87MG, and PANC-1 cells were grown in Dulbecco's Modified Eagle Medium (DMEM) with 10% fetal bovine serum (FBS) and 1% penicillin/streptomycin. MDA-MB-468 cells were grown in DMEM and Ham's F-12 medium (DMEM/F12) with 10% FBS and 1% penicillin/streptomycin. A2780 and BxPC3 cells were grown in Roswell Park Memorial Institute medium (RPMI) 1640+L-glutamine, with 10% FBS and 1% penicillin/streptomycin. D270 cells were grown in MEM (Richter's modification, no phenol red) with 10% FBS and 0.1% Gentamicin. Unless otherwise specified, cells were incubated at 37° C., 5% CO2. Flow cytometry was performed using an EMD Millpore Guava EasyCyte 8HT flow cytometer and the resulting data were evaluated using FlowJo software provided by TreeStar, Inc. Cell proliferation was measured using the Dojindo Cell Counting Kit-8 by replacing the media in each well with 100 μL of media containing 10% WST-8. After incubation for 1 h at 37° C., absorbance, A, at 450 nm was measured with a BioTek Synergy H4 microtiter plate reader. The background signal of CCK-8 alone was subtracted from all samples. Cell proliferation was then expressed as a percentage of absorbance relative to the control of untreated cells (Equation 2). Nonlinear regression analysis was performed using GraphPad Prism.\nThe relative extent of premature drug-release in the cases of 5a, 5c, and 5d was next determined in order to identify the linker best-suited for delivering the drug payload intracellularly. An established technique for blocking the cellular uptake of Gemcitabine by using S (4-nitrobenzyl)-6-thioinosine (6) was employed, which is known to inhibit human equilibrative nucleoside transporters, such as hENT1. Because hENT1 is a critical regulator of the cellular internalization of Gemcitabine, it was reasoned that by inhibiting its activity with 6, the cytotoxic effect of any drug payload that was released in the extracellular environment could be diminished. It was anticipated that this would allow the distinction between KDCs that were potent due to the undesirable release of Gemcitabine outside of the cell from those that released Gemcitabine intracellularly (FIG. 6). The extent of premature drug release in the extracellular environment was studied by inhibiting activity of nucleoside transporters (such as hENT1) of U87MG cells through the use of the hENT1 inhibitor S-(4-nitrobenzyl)-6-thioinosine (6). […] In a similar fashion, it was expected that for KDCs which released a significant amount of the drug payload in the extracellular environment, an increase in the concentration of 6 should result in a concomitant increase in ED50 value.\nMedia used to prepare varying concentrations of drug, protein, or protein-drug conjugate also contained varying concentrations of the hENT1 inhibitor, 6. Additionally, prior to treatment, cell were incubated at 37° C., 5% CO2 with fresh media containing the varying concentrations of 6 for 2 h. Cell proliferation was measured using the Cell Counting Kit-8 by replacing the media in each well with 100 μL of media containing 10% WST-8. After incubation for 1 h at 37° C., absorbance at 450 nm was measured with a Synergy H4 microtiter plate reader. ED50 values were determined by nonlinear regression analysis. Example dose-response curves for 3 (FIG. 7) and 5d (FIG. 8) are provided. Cell proliferation was measured according to the method described in Section 1.3. Error bars represent the standard deviation of experiments performed in triplicate.\nThese values were normalized as Fold Increase in ED50 (defined in Equation 2) by dividing the ED50 of each drug when 6 was co-administered at concentration=C by the ED50 of that same drug when no 6 was added, then subtracting 1 (thus, a “0-fold increase” would mean no increase, while a “1-fold increase” would mean that the ED50 value had doubled). Fold Increase in ED50 for each drug at each concentration of 6 is provided in Table 5, and these values were used to generate FIG. 9."}, "U87MG cells [2]": {"test_system": "U87MG cells", "test": "Integrin-blocking competition: cell proliferation (CCK-8) after pre-treatment with EETI-2.5F (1)", "format": "cell-based", "conditions": "1 μM 1, 3 h pre-treatment and co-treatment", "procedure": "as §1\nOne possible explanation for the apparent hENT1-independence of 5d is that its route of internalization could be integrin-mediated. The role of integrin-binding in the biological potency and hENT1-independence of 5d was determined. A competition experiment was carried out in which U87MG cells were pre-treated with unconjugated EETI-2.5F (1) in order to block integrins on the cell surface. The role of integrin-binding was studied by measuring the proliferation of U87MG cells that had been pre-treated with EETI-2.5F (1) when exposed to increasing doses of 3 and KDCs 5a, 5c, and 5d. […] Media used to prepare varying concentrations of drug, protein, or protein-drug conjugate also contained 1 μM of 1. Prior to treatment, cells were incubated for 3 h at 37° C., 5% CO2 with fresh media containing 1 μM 1. After this pre-treatment, cells were incubated with varying concentrations of 5a, 5c, or 5d for 24 h and then media was replaced with fresh media and cells were incubated for an additional 48 h. Cell proliferation was measured using the Cell Counting Kit-8 by replacing the media in each well with 100 μL of media containing 10% WST-8. After incubation for 1 h at 37° C., absorbance at 450 nm was measured with a Synergy H4 microtiter plate reader. Cell proliferation was measured according to the method described in Section 1.3. Error bars represent the standard deviation of experiments performed in triplicate."}}}
{"molecule": "CC(C)C[C@@H]1NC(=O)[C@@H]2CSSC[C@@H](C(=O)NCC(=O)O)NC(=O)[C@H](Cc3ccccc3)NC(=O)CNC(=O)[C@H](CC(N)=O)NC(=O)[C@@H]3CCCN3C(=O)CNC(=O)[C@@H]3CSSC[C@H](NC(=O)[C@H]([C@@H](C)O)NC(=O)[C@H](CC(C)C)NC(=O)[C@@H]4CCCN4C(=O)[C@@H]4CCCN4C(=O)[C@H](CC(N)=O)NC(=O)[C@H](CC(=O)O)NC(=O)CNC(=O)[C@H](CCCNC(=N)N)NC(=O)[C@@H]4CCCN4C(=O)[C@H](CCCNC(=N)N)NC(=O)[C@@H]4CCCN4C(=O)[C@@H](NC(=O)CN)CSSC[C@H](NC(=O)CNC(=O)[C@H](C)NC1=O)C(=O)N[C@@H](C(C)C)C(=O)N3)C(=O)N[C@@H](CCCn1cc(CCC(=O)N[C@H](C(=O)N[C@@H](C)C(=O)Nc3ccc(COC(=O)Nc4ccn([C@@H]5O[C@H](CO)[C@@H](O)C5(F)F)c(=O)n4)cc3)C(C)C)nn1)C(=O)N[C@@H](CCC(N)=O)C(=O)N[C@@H](CC(=O)O)C(=O)N[C@@H](CO)C(=O)N[C@@H](CC(=O)O)C(=O)N2", "note": "[5d]", "values": [{"measurement": "Effect of hENT1 inhibitor 6 on potency (ED50) (in words)", "setting": "U87MG cells [1]; U87MG cells, increasing concentrations of 6 up to 10 μM", "value": "no effect on the potency"}, {"measurement": "Fold Increase in ED50 in U87MG Cells", "setting": "U87MG cells [1]; [6] = 0 nM", "value": 0}, {"measurement": "Fold Increase in ED50 in U87MG Cells", "setting": "U87MG cells [1]; [6] = 1 nM", "value": "−0.3 ± 0.3"}, {"measurement": "Fold Increase in ED50 in U87MG Cells", "setting": "U87MG cells [1]; [6] = 10 nM", "value": "−0.6 ± 0.6"}, {"measurement": "Fold Increase in ED50 in U87MG Cells", "setting": "U87MG cells [1]; [6] = 100 nM", "value": "0.6 ± 1.0"}, {"measurement": "Fold Increase in ED50 in U87MG Cells", "setting": "U87MG cells [1]; [6] = 1000 nM", "value": "1.2 ± 1.2"}, {"measurement": "Fold Increase in ED50 in U87MG Cells", "setting": "U87MG cells [1]; [6] = 10000 nM", "value": "8.1 ± 5.4"}, {"measurement": "Effect of integrin blocking by pre-treatment with 1 on potency (in words)", "setting": "U87MG cells [2]", "value": "abolishes the potency"}]}
